Test results taken from US20190076384A1, “METHODS FOR TREATING UREA CYCLE DISORDERS” (priority 2017, published 2019).
Read-outs that look alike come from different tables or passages of the source.

Assays:
[1] = target: T1, CYP2C19 (Homo sapiens, UniProt P33261); format: in vitro ADME; settings: S-Mephenytoin 4′-hydroxylase, 5 mM
T1 construct: from tissue; host or cells: human liver microsomes

[2] = target: Cytochrome P450 3A4 (Homo sapiens, UniProt P08684); assay: clinical
Method: Methodology: This was a Phase 1, open-label, monosequence crossover, drug-drug interaction study of RAVICTI® and midazolam in healthy male and female subjects.
Single doses of midazolam HCl syrup (2 mg/mL) were administered in the morning following an approximate 10-hour fast on Days 1 and 5 (coadministered with RAVICTI® on Day 5) just prior to administration of breakfast (˜5 minutes before breakfast).
Pharmacokinetics: Blood samples for the analysis of plasma midazolam and its metabolite (1′-OH-midazolam, free+conjugates) levels were collected via an indwelling catheter and/or via direct venipuncture. Blood samples were collected on Days 1 and 5 at the following time points: predose, 0.5, 1, 2, 3, 4, 6, 8, 10, 12, 16, and 24 hours postdose. In addition, five plasma PK samples for GPB analysis were collected on Day 4 at the following time points: at 1 minute, 30 minutes, and 1 hour following the first morning dose of RAVICTI; at 30 minutes and 1 hour post second dose of RAVICTI.
Pharmacokinetics: The possible drug-drug interaction was examined between coadministration of RAVICTI and midazolam (test) and midazolam administered alone (reference). An analysis of variance (ANOVA), with treatment as a fixed effect and subject as a random effect, was performed. Data for Cmax, AUC0-t, and AUC0-∞, as appropriate, were natural log (ln)-transformed prior to analysis. The 90% confidence intervals (CIs) of the test group means relative to the reference group means were obtained by taking the antilog of the corresponding 90% CIs for the differences between the means on the log scale, i.e., ratio of geometric least-squares (LS) means.

[3] = Safety and tolerability of RAVICTI co-administered with celecoxib; format: in vivo, human
Method: Safety: Safety and tolerability were assessed through adverse events (AEs), clinical laboratory results, physical examination findings, vital sign measurements, and electrocardiograms (ECGs).
Safety: Safety data were summarized by treatment and time point. Descriptive statistics (mean, standard deviation [SD], minimum, median, maximum, and sample size [N]) were calculated for quantitative safety data and frequency counts were compiled for classification of qualitative safety data. AE verbatim terms were mapped to preferred terms and system organ classes using the Medical Dictionary for Regulatory Activities (MedDRA®) (Version 18.0). Concomitant medications were coded with the World Health Organization (WHO) Dictionary version 1Mar. 2015.

[4] = RAVICTI co-administered with celecoxib, 28 healthy subjects

Cytochrome P450 3A4, sequence (P08684 whole entry): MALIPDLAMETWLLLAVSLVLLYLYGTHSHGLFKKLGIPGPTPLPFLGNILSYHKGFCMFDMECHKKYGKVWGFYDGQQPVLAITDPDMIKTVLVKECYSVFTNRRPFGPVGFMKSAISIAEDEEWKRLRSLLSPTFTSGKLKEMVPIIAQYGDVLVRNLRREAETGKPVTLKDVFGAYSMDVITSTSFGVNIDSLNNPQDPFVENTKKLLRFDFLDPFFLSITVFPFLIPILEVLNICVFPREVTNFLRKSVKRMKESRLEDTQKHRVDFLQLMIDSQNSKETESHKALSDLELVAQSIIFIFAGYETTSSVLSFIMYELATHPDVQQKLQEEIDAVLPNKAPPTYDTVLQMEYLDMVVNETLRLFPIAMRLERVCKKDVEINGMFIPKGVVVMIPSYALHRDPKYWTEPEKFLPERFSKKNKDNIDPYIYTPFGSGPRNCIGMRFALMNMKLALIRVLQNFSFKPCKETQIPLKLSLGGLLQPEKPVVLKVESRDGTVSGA
T1 sequence (P33261 whole entry): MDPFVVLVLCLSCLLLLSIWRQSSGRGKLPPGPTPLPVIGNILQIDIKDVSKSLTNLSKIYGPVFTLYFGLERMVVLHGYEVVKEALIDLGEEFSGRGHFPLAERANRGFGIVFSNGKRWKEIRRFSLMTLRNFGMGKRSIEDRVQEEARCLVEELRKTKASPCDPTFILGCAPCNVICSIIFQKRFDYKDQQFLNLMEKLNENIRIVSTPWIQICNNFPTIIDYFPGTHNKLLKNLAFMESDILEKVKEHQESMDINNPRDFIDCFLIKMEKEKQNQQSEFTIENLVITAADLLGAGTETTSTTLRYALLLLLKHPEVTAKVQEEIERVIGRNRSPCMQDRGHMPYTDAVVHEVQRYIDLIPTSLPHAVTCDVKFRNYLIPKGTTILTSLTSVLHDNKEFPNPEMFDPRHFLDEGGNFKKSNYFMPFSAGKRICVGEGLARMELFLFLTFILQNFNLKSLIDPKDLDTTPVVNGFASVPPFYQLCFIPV

With `O=C(CCCc1ccccc1)OCC(COC(=O)CCCc1ccccc1)OC(=O)CCCc1ccccc1` [RAVICTI, benzenebutanoic acid, 1′,1″-(1,2,3-propanetriyl) ester] the “% Inhibition” value ([1]; pre-incubation time 0 min) was 8%, the “% Inhibition” value ([1]; pre-incubation time 30 min) was 7% and the “drug-drug interaction by statistical analysis of Cmax, AUC0-t and AUC0-∞” value ([2]; RAVICTI metabolites with midazolam and 1′-OH-midazolam, 90% CIs outside 80 to […]) was “significant drug-drug interaction”. For the same compound, the “effect on CYP3A4 enzyme in vivo (conclusion)” value ([2]; steady-state RAVICTI, healthy subjects) was “weak inducer”, the “deaths, SAEs, discontinuations due to AEs” value [3, 4] was “no deaths, SAEs, or subject discontinuations due to AEs” and the “subjects experiencing TEAEs” value [3, 4] was 8 subjects. For the same compound, the “total TEAEs” value [3, 4] was 23 and the “safety and tolerability (conclusion)” value ([3]; oral RAVICTI co-administered with celecoxib, healthy adults) was “safe and generally well tolerated”.
